Assay results published in patent US5539123A, “Low molecular weight thiocarbamates as inhibitors of elastase, uses and method of synthesis” (University of Kentucky Research Foundation, priority 1994, dated 1996).

Columns and labels:
Human Leucocyte Elastase = target: T1, Human Leucocyte Elastase (Homo sapiens, UniProt P08246); assay: Inactivation of Human Leucocyte Elastase (HLE-catalyzed hydrolysis of N-Methoxysuccinyl-L-Ala-L-Ala-L-Pro-L-Val-p-nitroanilide); type: biochemical; details: for times more potent than PC1: compared with PC1, kobs/I=3.3×10^4 M^-1 s^-1; for kinact/KI: second order rate constant, pH 7.5, 25° C., read-out: kobs/I
T1 construct: Human leucocyte elastase from human sputum was purchased from elastin corporation; purchased elastin corporation; host or cells: human sputum
T1 sequence (P08246 30-247 limits assumed): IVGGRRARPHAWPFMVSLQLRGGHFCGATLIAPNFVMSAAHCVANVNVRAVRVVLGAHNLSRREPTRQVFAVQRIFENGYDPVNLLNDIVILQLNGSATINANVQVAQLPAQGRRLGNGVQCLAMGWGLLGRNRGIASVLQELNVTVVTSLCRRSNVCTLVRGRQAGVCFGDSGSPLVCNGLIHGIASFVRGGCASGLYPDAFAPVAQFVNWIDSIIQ
Procedure: Therefore, second order rate constants (kobs /I, M^-1 s^-1), (I=concentration inhibitor molar) shown in Formula 1, were determined by following the inactivation of the enzyme for 2 hours as described in the experimental section. […] The results are plotted as % of relative remaining activity vs time which is the absolute remaining activity in the presence of inhibitor divided by the absolute remaining activity of the free enzyme in absence of inhibitor for the same time interval.
In such a case a semilog plot of the relative remaining activity (A/Ao) vs time would describe a curve approaching the fractional activity (F) at longer times whereas a semilog plot of (A/Ao-F)/(1-F) vs time will be linear with a slope equal to the kobs, the pseudofirst order rate constant (equation 2).
The inactivation of HLE enzyme appears to involve the chemical modification of one residue on the enzyme and the pseudofirst order rate constant kobs divided by the concentration of the inhibitor (I) can be used as a measure of the inhibitory activity of the compounds (equation 3).
Human leucocyte elastase from human sputum was purchased from elastin corporation. Hepes, 4-(2-hydroxyethyl)-1-piperazineethanesulfonic acid, was purchased from Aldrich Chemical Co. (Milwaukee, Wis.). Substrate N-Methoxysuccinyl-L-Ala-L-Ala-L-Pro-L-Val-p-nitroanilide was purchased from Sigma Chemicals. Absorbance was measured with a VARIAN CARY-2200 spectrophotometer at 410 nm.
5 μl of acetate buffer (0.05M Sodium Acetate adjusted with 6N HCl to ph=5.5) is added to the reference cuvette, and the cuvette is shaken for 15 seconds to mix the solution. 5 μl of HLE 3.7×10^-5 M in acetate buffer is added to the sample cuvette and the cuvette is shaken for 15 seconds. Both cuvettes were placed in the jacketed cuvette holders of the spectrophotometer and incubated at 25° C. for a fixed time interval up to 2 hours (Incubation periods of 3, 4, 5, 7, 10, 15, 20, 30, 45, 60, 90 and 120 minutes were used).
Shortly before the incubation period ends, the cuvettes are balanced at 410 nm. […] The cuvettes are shaken for 15 seconds and the absorbance is recorded at 410 nm at 1 min, 2 min and 3 min after addition of substrate. A control in which 50 μl of dimethyl sulfoxide used to dissolve the inhibitor is added in its place, is done in the same manner as above for each incubation period.
Absorbance of sample is the absolute remaining activity of HLE (A), and absorbance of control is the total activity of HLE (Ao).
% Relative Remaining Activity=(A/Ao)×100
The % relative remaining activity of the HLE for each inhibitor is plotted against the time of incubation and from the slope of the semilog plot the kobs is determined.
The equation that describes this model is:
A/Ao=(1-F)e^-Kobst +F (equation 1)
Rearranging results in a linear relationship
Ln ((A/Ao)-F/1-F)=-kobs t (equation 2)
A semilog plot results in a straight line with slope=kobs, the pseudofirst order rate constant ksec =kobs /I (equation 3)
The ksec is the second order independent rate constant that is used to compare the inhibitory activity of the compounds against HLE.

[1] = Stability in excess of methanol with normal phase HLPC/HPLC; type: physicochemical
Procedure: The flow was maintained at 1 ml/min, and a KRATOS variable UVdetector at 265 nm was used. Two separate experiments were conducted under the above conditions in which the stability of (1E) was [drawing 16] monitored in excess of methanol.
The above two experiments indicate that (1E) is consumed at the same rate as the thiol tetrazole (D) is produced. The thiol tetrazole (D) is exclusively produced from the degradation of the thiocarbamate with methanol. In other words (1E) reacts with methanol to give thiol tetrazole (D) and most probably N-n-butyl, methylcarbamate which cannot be detected under the above conditions.

[2] = inactivation followed for 2 hours

Row | kinact/KI (Human Leucocyte Elastase; [2]) [M⁻¹ s⁻¹] | SMILES | inhibition of HLE (Human Leucocyte Elastase) | other results
1 |  | CCCCN [Compound 1A, n-butylamine] | None of the corresponding amines (1A, 2A, 3A, 4A, 5A and 6A) nor 1-phenyl-1H-tetrazole-5-thiol (D) inhibited HLE | 
2 | 210000 | CCCCNC(=O)Sc1nnnn1-c1ccccc1 [Compound 1E, N-butyl, 1-phenyl-1H-tetrazole-5-thiocarbamate] |  | stability [1]: fairly stable; half-life ([1]; calculated from the pseudofirst order rate constants): 17 days; times more potent than PC1 (Human Leucocyte Elastase): 10 times
3 |  | C=CCN [Compound 2A] | None of the corresponding amines (1A, 2A, 3A, 4A, 5A and 6A) nor 1-phenyl-1H-tetrazole-5-thiol (D) inhibited HLE | 
4 | 61000 | C=CCNC(=O)Sc1nnnn1-c1ccccc1 [Compound 2E, N-allyl, 1-phenyl-1H-tetrazole-5-thiocarbamate] |  | times more potent than PC1 (Human Leucocyte Elastase): 2 times
5 |  | CC(C)N [Compound 3A, isopropyl amine] | None of the corresponding amines (1A, 2A, 3A, 4A, 5A and 6A) nor 1-phenyl-1H-tetrazole-5-thiol (D) inhibited HLE | 
6 | 3300 | CC(C)NC(=O)Sc1nnnn1-c1ccccc1 [Compound 3E, N-isopropyl, 1-phenyl-1H-tetrazole-5-thiocarbamate] |  | times more active than 4E (Human Leucocyte Elastase; compared with (4E), kobs/I): 10 times
7 |  | Nc1ccccc1 [Compound 4A] | None of the corresponding amines (1A, 2A, 3A, 4A, 5A and 6A) nor 1-phenyl-1H-tetrazole-5-thiol (D) inhibited HLE | 
8 | 190 | O=C(Nc1ccccc1)Sc1nnnn1-c1ccccc1 [Compound 4E, N-phenyl, 1-phenyl-1H-tetrazole-5-thiocarbamate] |  | 
9 |  | CCCCNCC [Compound 5A, ethyl, butylamine] | None of the corresponding amines (1A, 2A, 3A, 4A, 5A and 6A) nor 1-phenyl-1H-tetrazole-5-thiol (D) inhibited HLE | 
10 | 180 | CCCCN(CC)C(=O)Sc1nnnn1-c1ccccc1 [Compound 5E, N-ethyl-N-butyl, 1-phenyl-1H-tetrazole-5-thiocarbamate] |  | 
11 |  | CC(C)NC(C)C [Compound 6A] | None of the corresponding amines (1A, 2A, 3A, 4A, 5A and 6A) nor 1-phenyl-1H-tetrazole-5-thiol (D) inhibited HLE | 
12 |  | CC(C)N(C(=O)Sc1nnnn1-c1ccccc1)C(C)C [Compound 6E, N, N-diisopropyl, 1-phenyl-1H-tetrazole-5-thiocarbamate] | no inhibitory activity | kobs/I (class symbol) (Human Leucocyte Elastase; [2]): N.I.
13 |  | Sc1nnnn1-c1ccccc1 [D, 1-phenyl-1H-tetrazole-5-thiol] | None of the corresponding amines (1A, 2A, 3A, 4A, 5A and 6A) nor 1-phenyl-1H-tetrazole-5-thiol (D) inhibited HLE | 
